Data taken from publication PMC7756392, “Syntheses of Thailandepsin B Pseudo‐Natural Products: Access to New Highly Potent HDAC Inhibitors via Late‐Stage Modification” (Chemistry (Weinheim an Der Bergstrasse, Germany), 2020).

Assays:
hHDAC8 = target: T1, hHDAC8 (Homo sapiens, UniProt Q9BY41); assay: ZMTFAL trypsin assay, HDAC8; format: biochemical
T1 sequence (Q9BY41 1-377): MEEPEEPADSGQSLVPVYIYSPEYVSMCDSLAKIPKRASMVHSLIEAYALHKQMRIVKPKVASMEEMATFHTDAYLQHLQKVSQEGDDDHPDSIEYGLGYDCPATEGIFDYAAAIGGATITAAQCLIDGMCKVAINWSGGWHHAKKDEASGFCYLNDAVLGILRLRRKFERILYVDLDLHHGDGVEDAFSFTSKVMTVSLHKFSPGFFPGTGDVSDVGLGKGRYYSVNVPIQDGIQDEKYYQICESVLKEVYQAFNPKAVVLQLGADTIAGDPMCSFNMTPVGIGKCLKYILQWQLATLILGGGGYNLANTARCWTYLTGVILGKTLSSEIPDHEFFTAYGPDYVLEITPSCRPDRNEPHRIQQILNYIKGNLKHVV
Experimental: [28] Assays for HDAC1/6 were prepared according to: B. Heltweg , J. Trapp , M. Jung , Methods 2005, 36, 332–337; assays for HDAC8 were prepared according to: J. Senger , J. Melesina , M. Marek , C. Romier , I. Oehme , O. Witt , W. Sippl , M. Jung , J. Med. Chem. 2016, 59, 1545–1555. […]
After […]
incubation (30 min at 37 °C) fluorescence signal (λex = 390 nm, λem = 460 nm) was measured on a BMG LABTECH POLARstar OPTIMA plate reader (BMG Labtechnologies, Germany).10 hHDAC8: Enzyme was obtained from cooperation partners (Romier).11 Assay was performed as described before. 22.5 µL of enzyme solution in assay buffer (15 mM Tris, pH 7.5, 50 mM KH2PO4, 10 mM KCl, 3 mM MgSO4·7H2O and 0.2 mM TCEP), increasing inhibitor concentrations in DMSO (2.5 μL) and 5 µL of ZMTFAL substrate solution ([…]) were incubated for 90 min at 37 °C in ½ AreaPlate-96 F microplates (PerkinElmer). 30 µL of stop solution (see HDAC1/6) were added. After incubation (30 min at 37 °C) fluorescence signal was […]

HL60 cells = assay: MTS cell viability assay, HL60; format: cell-based; conditions: for GI50 (in words): 72 h
Experimental: hHDAC1/6: Activity assays were performed in OptiPlateTM-96 F black microplates (PerkinElmer). Commercial available enzymes (human recombinant HDAC1; BPS Bioscience, catalog no. 50051 and human recombinant HDAC6; BPS Bioscience, catalog no. 50006) were used. Total assay volume of 60 µL contains 42 µl of assay buffer (50 mM Tris -HCl, pH 8.0, 137 mM NaCl, 2.7 mM KCl, 1 mM MgCl2, 0.2 mM TCEP and 1 mg/mL bovine serum albumin), 10 µL of enzyme solution in assay buffer, 3 µL of increasing concentrations of inhibitors in DMSO and 5 μL of the fluorogenic substrate ZMAL (Z -(Ac)Lys-AMC) (126 μM). After incubation (90 min, 37 °C) 60 µL of stop solution, containing 5 μL Trichostatin A (TSA) (33 μM) and 10 μL trypsin (6 mg/mL) in trypsin buffer (Tris-HCl 50 mM, pH 8.0, NaCl 100 mM), were added. After incubation (30 min at 37 °C) fluorescence signal (λex = 390 nm, λem = 460 nm) was measured on a BMG LABTECH POLARstar OPTIMA plate reader (BMG Labtechnologies, Germany).10 hHDAC8: Enzyme was obtained from cooperation partners (Romier).11 Assay was performed as described before. […] After incubation (30 min at 37 °C) fluorescence signal was determined as mentioned for HDAC1/6.12 […]
Cell proliferation was determined by using the Celltiter 96 AQueous nonradioactive Proliferation Assay (Promega). After 72h of incubation time with inhibitor or DMSO, 20 µL of a mixture (20:1) consisting of MTS (3-(4,5-dimethylthiazol-2-yl)-5-(3-carboxymethoxyphenyl)-2-(4-sulfophenyl-2H-tetrazolium) and PMS (phenazine methosulfate) were added to each well. Absorption was measured after another 2-4 h with a BMG LABTECH POLARstar OPTIMA plate reader (BMG Labtechnologies, Germany).
Experiments were performed in triplicates and GI50 values were calculated using the software Origin 2019. […]
CO2. […] After another 20 min of incubation, the fluorescence signal (λex = 390 nm, λem = 460 nm) was measured on a BMG LABTECH POLARstar OPTIMA plate reader (BMG Labtechnologies, Germany). […]

Compound	inhibition at 10 µM (hHDAC8)	growth inhibition at 5 μM (in words) (HL60 cells; 5 μM)	GI50 (in words) (HL60 cells)
CCCC[C@H]1NC(=O)C[C@@H](/C=C/CCC(=O)NO)OC(=O)C[C@H](O)[C@@H]([C@@H](C)CC)NC(=O)[C@@H](C)NC1=O [compound 8]	21%	did not inhibit growth	–
CCCC[C@H]1NC(=O)C[C@@H](/C=C/CCSC(C)=O)OC(=O)C[C@H](O[Si](C)(C)C(C)(C)C)[C@@H]([C@@H](C)CC)NC(=O)[C@@H](C)NC1=O [compound 32]	30%	–	micromolar
CCCC[C@H]1NC(=O)C[C@@H](/C=C/CCSC(C)=O)OC(=O)C[C@H](O)[C@@H]([C@@H](C)CC)NC(=O)[C@@H](C)NC1=O [compound 33]	22%	–	nanomolar
